In ChEMBL document CHEMBL3714716, “Modulators of the relaxin receptor 1” (2015):
Converted amounts (≈) assume the structure as drawn. The source made the active and inactive calls. No cut-off for these calls is given here.

Assays:
[1] = biological target: T1, Relaxin receptor 1 (Homo sapiens, UniProt Q9HBX9); experiment: Agonist activity at RXFP1 receptor (unknown origin) expressed in HEK293 cells assessed as stimulation of cAMP production incubated for 30 mins by TR-FRET based HTRF assay; format: functional, cell-based
T1 sequence (Q9HBX9 whole entry): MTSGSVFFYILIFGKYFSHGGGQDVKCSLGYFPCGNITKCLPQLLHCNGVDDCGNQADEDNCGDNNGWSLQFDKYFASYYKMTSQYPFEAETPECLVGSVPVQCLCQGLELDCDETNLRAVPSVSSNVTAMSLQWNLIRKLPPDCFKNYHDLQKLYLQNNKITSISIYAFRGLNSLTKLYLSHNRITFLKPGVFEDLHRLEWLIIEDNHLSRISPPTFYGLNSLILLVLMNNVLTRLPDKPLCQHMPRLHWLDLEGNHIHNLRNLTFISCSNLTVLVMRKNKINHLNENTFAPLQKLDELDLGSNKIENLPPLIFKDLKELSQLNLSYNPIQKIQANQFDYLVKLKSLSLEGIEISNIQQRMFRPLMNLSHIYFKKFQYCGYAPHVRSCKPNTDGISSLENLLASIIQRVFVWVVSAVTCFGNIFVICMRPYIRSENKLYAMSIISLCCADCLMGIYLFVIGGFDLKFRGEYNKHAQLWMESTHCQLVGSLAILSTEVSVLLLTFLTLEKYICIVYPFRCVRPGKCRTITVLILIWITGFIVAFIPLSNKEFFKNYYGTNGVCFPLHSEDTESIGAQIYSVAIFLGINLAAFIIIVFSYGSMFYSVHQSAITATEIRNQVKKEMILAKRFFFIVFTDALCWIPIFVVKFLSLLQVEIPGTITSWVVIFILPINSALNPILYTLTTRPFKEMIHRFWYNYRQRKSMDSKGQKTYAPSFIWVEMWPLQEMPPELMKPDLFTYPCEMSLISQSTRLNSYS

[2] = biological target: T2, Relaxin receptor 1 (Homo sapiens) (UniProt Q9HBX9); experiment: Agonist activity at RXFP1 receptor (unknown origin) expressed in HEK293 cells assessed as stimulation of cAMP production incubated for 30 mins by TR-FRET based HTRF assay relative to forskolin; format: functional, cell-based
T2 sequence (whole entry): T1 sequence (Q9HBX9 whole entry)

[3] = biological target: T3, Relaxin receptor 2 (Homo sapiens, UniProt Q8WXD0); experiment: Agonist activity at RXFP2 receptor (unknown origin) expressed in HEK293 cells assessed as stimulation of cAMP production incubated for 30 mins by HTRF assay; format: functional, cell-based
[4] = biological target: T3, Relaxin receptor 2; experiment: Agonist activity at RXFP2 receptor (unknown origin) expressed in HEK293 cells assessed as stimulation of cAMP production incubated for 30 mins by HTRF assay relative to control; format: functional, cell-based
[5] = biological target: T4, Vasopressin V1b receptor (Homo sapiens, UniProt P47901); experiment: Agonist activity at vasopressin receptor 1b (unknown origin) expressed in HEK293 cells assessed as stimulation of cAMP production incubated for 30 mins by HTRF assay; format: functional, cell-based
T4 sequence (P47901 whole entry): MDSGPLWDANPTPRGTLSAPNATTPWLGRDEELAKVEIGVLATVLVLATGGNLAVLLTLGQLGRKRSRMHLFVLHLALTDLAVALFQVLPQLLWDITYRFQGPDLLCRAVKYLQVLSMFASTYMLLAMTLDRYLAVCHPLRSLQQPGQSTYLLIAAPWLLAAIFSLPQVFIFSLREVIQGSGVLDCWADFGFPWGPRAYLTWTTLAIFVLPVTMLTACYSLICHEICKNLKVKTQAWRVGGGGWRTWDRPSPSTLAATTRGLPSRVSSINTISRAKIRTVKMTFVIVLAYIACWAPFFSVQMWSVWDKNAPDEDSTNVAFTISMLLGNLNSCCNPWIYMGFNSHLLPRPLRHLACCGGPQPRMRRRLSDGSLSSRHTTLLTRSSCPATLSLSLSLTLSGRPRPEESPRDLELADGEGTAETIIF

[6] = biological target: T5, Vasopressin V1b receptor (Homo sapiens) (UniProt P47901); experiment: Agonist activity at vasopressin receptor 1b (unknown origin) expressed in HEK293 cells assessed as stimulation of cAMP production incubated for 30 mins by HTRF assay relative to control; format: functional, cell-based
T5 sequence (whole entry): T4 sequence (P47901 whole entry)

[7] = Cytotoxic activity against HEK293 cells assessed as reduction in cell viability by measuring ATP level incubated for 72 hrs by ATP cytotoxicity assay relative to control; format: cell-based; conditions: human, read-out: %max
[8] = Solubility in PBS buffer; format: physicochemical

T3 sequence (Q8WXD0 whole entry): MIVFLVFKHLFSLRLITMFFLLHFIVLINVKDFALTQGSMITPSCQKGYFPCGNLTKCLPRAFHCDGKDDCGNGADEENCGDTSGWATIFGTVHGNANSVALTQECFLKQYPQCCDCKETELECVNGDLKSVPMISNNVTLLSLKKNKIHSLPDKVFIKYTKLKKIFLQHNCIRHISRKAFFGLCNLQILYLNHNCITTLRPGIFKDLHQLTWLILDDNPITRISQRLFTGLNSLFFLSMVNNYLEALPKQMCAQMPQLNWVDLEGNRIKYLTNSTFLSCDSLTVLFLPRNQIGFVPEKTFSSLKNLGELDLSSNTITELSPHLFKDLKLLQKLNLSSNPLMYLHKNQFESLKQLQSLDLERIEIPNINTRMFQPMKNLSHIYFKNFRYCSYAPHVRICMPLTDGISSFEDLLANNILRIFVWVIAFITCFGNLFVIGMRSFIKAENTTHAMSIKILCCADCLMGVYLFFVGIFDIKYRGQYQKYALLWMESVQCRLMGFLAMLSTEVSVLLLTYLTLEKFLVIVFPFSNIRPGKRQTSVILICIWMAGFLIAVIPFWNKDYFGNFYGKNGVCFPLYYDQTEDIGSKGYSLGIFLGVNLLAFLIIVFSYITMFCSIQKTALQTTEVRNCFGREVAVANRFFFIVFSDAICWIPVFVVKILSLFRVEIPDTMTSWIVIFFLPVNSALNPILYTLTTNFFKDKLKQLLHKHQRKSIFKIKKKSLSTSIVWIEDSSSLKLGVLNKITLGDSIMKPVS

Row | Structure (SMILES) | AC50 ([1]; read-out: AC50) | %max [2] | also measured
1 | O=C(Nc1ccccc1C(=O)Nc1cccc(C(F)(F)F)c1)c1ccno1 | 14.9 µM | 93% | AC50 ([3]; read-out: AC50): 7.47 µM; %max [4]: 38%; AC50 [5]: Not Active; %max [6]: < 30%; Emax at 72 h [7]: -73%; solubility [8]: < 1.1 µM
2 | O=C(Nc1cccc(C(F)(F)F)c1)c1ccccc1NC(=O)c1cccc2nc[nH]c12 | 11.8 µM | 90% | AC50 ([3]; hek293): Not Active; %max [4]: < 30%; AC50 [5]: Not Active; %max [6]: < 30%; Emax at 72 h [7]: -76%; solubility [8]: 6.3 µM (≈ 2.67 µg/mL)
3 | O=C(Nc1ccccc1)c1ccccc1NC(=O)C1CCCCC1 | 94 µM | 57% | –
4 | O=C(NCc1ccco1)c1ccccc1NC(=O)C1CCCCC1 | – | inactive | AC50 ([1]; hek293): Not Active
5 | O=C(NCc1ccco1)c1ccccc1NC(=O)c1ccccc1NC(=O)C1CCCCC1 | 9.4 µM | 45% | –
6 | CCOc1ccccc1C(=O)Nc1ccccc1C(=O)Nc1cccc(C(=N)N)c1 | – | inactive | AC50 ([1]; hek293): Not Active
7 | CC(C)(C)OC(=O)N1CCN(CCOc2ccccc2C(=O)Nc2ccccc2C(=O)Nc2cccc(C(F)(F)F)c2)CC1 | 1.33 µM | 94% | –
8 | O=C(Nc1ccccc1Br)c1ccccc1NC(=O)C1CCCCC1 | – | inactive | AC50 ([1]; hek293): Not Active
9 | O=CNc1ccccc1C(=O)Nc1cccc(C(F)(F)F)c1 | 47.1 µM | 78% | –
10 | O=C(Nc1ccccc1C(=O)Nc1cccc(C(F)(F)F)c1)c1ccc(Cl)cc1 | 2.65 µM | 95% | –
11 | O=C(Nc1cccc(C(F)(F)F)c1)c1ccccc1Nc1ccccc1 | 4.2 µM | 84% | –
12 | O=C(Nc1ccccc1C(=O)Nc1cccc(C(F)(F)F)c1)c1ccco1 | 2.36 µM | 81% | –
13 | CCOc1ccccc1C(=O)Nc1ccccc1C(=O)Nc1cccnc1 | 149 µM | 37% | –
14 | CCCCC(=O)Nc1ccccc1C(=O)Nc1cccc(C(F)(F)F)c1 | 5.29 µM | 94% | –
15 | O=C(Nc1cccc(N2CCCCC2)c1)c1ccccc1NC(=O)C1CCCCC1 | – | inactive | AC50 ([1]; hek293): Not Active
16 | CN(C)CCOc1ccccc1C(=O)Nc1cccc(C(F)(F)F)c1 | – | inactive | AC50 ([1]; hek293): Not Active
17 | CCSc1ccccc1C(=O)Nc1ccccc1C(=O)Nc1cccc(S(=O)(=O)C(F)(F)F)c1 | 0.529 µM | 95% | –
18 | O=C(Nc1cccc(I)c1)c1ccccc1NC(=O)C1CCCCC1 | 2.97 µM | 84% | –
19 | COc1ccccc1Nc1ccccc1C(=O)Nc1cccc(C(F)(F)F)c1 | 4.71 µM | 77% | –
20 | O=C(Nc1ccccc1C(=O)Nc1cccc(C(F)(F)F)c1)c1cccc(Cl)c1 | 1.88 µM | 96% | –

Row | Structure (SMILES) | AC50 ([1]; read-out: AC50) | %max [2] | also measured
21 | Cc1ccccc1C(=O)Nc1ccccc1C(=O)Nc1cccc(C(F)(F)F)c1 | 4.2 µM | 90% | –
22 | CCOc1ccccc1C(=O)Nc1ccccc1C(=O)Nc1cccc(C#N)c1 | 0.666 µM | 96% | –
23 | COc1cccc(NC(=O)c2ccccc2NC(=O)C2CCCCC2)c1 | 37.4 µM | 74% | –
24 | CCC(CC)C(=O)Nc1ccccc1C(=O)Nc1cccc(C(F)(F)F)c1 | 5.29 µM | 59% | –
25 | COCCOc1ccccc1C(=O)Nc1cccc(C(F)(F)F)c1 | – | inactive | AC50 ([1]; hek293): Not Active
26 | O=C(Nc1ccccc1C(=O)Nc1cccc(C(F)(F)F)c1)c1ccccc1 | 1.32 µM | 64% | –
27 | CC(C)(C)c1ccc(NC(=O)c2ccccc2NC(=O)C2CCCCC2)cc1 | – | inactive | AC50 ([1]; hek293): Not Active
28 | Cc1cccc(C(=O)Nc2ccccc2C(=O)Nc2cccc(C(F)(F)F)c2)c1 | 3.74 µM | 92% | –
29 | CCOc1ccccc1C(=O)Nc1ccccc1C(=O)Nc1cccc(I)c1 | 0.747 µM | 96% | –
30 | COCCOc1ccccc1C(=O)Nc1ccccc1C(=O)Nc1cccc(C(F)(F)F)c1 | 0.747 µM | 98% | –
31 | CC(C)(C)OC(=O)N1CCN(CCOc2ccccc2C(=O)Nc2cccc(C(F)(F)F)c2)CC1 | – | inactive | AC50 ([1]; hek293): Not Active
32 | O=C(Nc1cccc(S(=O)(=O)C(F)(F)F)c1)c1ccccc1NC(=O)C1CCCCC1 | 1.06 µM | 87% | –
33 | O=C(NCc1cccs1)c1ccccc1NC(=O)C1CCCCC1 | 118 µM | 40% | –
34 | CCOc1ccccc1C(=O)Nc1cccc2c1C(=O)N(c1cccc(S(=O)(=O)C(F)(F)F)c1)C2 | – | inactive | AC50 ([1]; hek293): Not Active
35 | O=C(Nc1cccc(-c2cccs2)c1)c1ccccc1NC(=O)C1CCCCC1 | 471 µM | 31% | –
36 | O=C(Nc1cccc(C(F)(F)F)c1)c1ccccc1NC(=O)C1CCC1 | 2.97 µM | 75% | –
37 | CS(=O)(=O)c1cccc(NC(=O)c2ccccc2NC(=O)C2CCCCC2)c1 | 118 µM | 34% | –
38 | O=C(Nc1ccccc1C(=O)Nc1cccc(C(F)(F)F)c1)c1ccccc1Cl | 3.74 µM | 92% | –
39 | N#Cc1ccc(C(=O)Nc2ccccc2C(=O)Nc2cccc(C(F)(F)F)c2)cc1 | 1.67 µM | 96% | –
40 | COCCNc1ccccc1C(=O)Nc1cccc(C(F)(F)F)c1 | 59.3 µM | 63% | –

Row | Structure (SMILES) | AC50 ([1]; read-out: AC50) | %max [2] | also measured
41 | O=C(Nc1cccc(C(F)(F)F)c1)c1ccccc1NCC1CCCCC1 | 5.93 µM | 77% | –
42 | O=C(Nc1cccc(C(F)(F)F)c1)c1ccccc1NC(=O)c1ccccc1OCCN1CCNCC1 | – | inactive | AC50 ([1]; hek293): Not Active
43 | CCOc1ccccc1C(=O)Nc1ccccc1C(=O)Nc1ccccn1 | 29.7 µM | 74% | –
44 | CCOc1ccccc1C(=O)Nc1ccncc1C(=O)Nc1cccc(S(=O)(=O)C(F)(F)F)c1 | 0.747 µM | 97% | –
45 | CSc1cccc(NC(=O)c2ccccc2NC(=O)C2CCCCC2)c1 | 5.29 µM | 84% | –
46 | O=C(Nc1ccc([N+](=O)[O-])cc1)c1ccccc1NC(=O)C1CCCCC1 | 74.7 µM | 56% | –
47 | COc1ccccc1C(=O)Nc1ccccc1C(=O)Nc1cccc(C(F)(F)F)c1 | 0.334 µM | 99% | –
48 | C/C=C/c1cccc(NC(=O)c2ccccc2NC(=O)c2ccccc2OCC)c1 | 2.11 µM | 84% | –
49 | COc1ccccc1C(=O)Nc1ccccc1C(=O)Nc1cccc(-c2cccs2)c1 | – | inactive | AC50 ([1]; hek293): Not Active
50 | CNCCOc1ccccc1C(=O)Nc1ccccc1C(=O)Nc1cccc(C(F)(F)F)c1 | 3.74 µM | 92% | –
51 | O=C(Nc1cccc(SC(F)(F)F)c1)c1ccccc1NC(=O)C1CCCCC1 | 1.88 µM | 90% | –
52 | O=C(NCc1ccccc1C(F)(F)F)c1ccccc1NC(=O)C1CCCCC1 | – | inactive | AC50 ([1]; hek293): Not Active
53 | O=C(Nc1cc(C(F)(F)F)ccc1F)c1ccccc1NC(=O)C1CCCCC1 | – | inactive | AC50 ([1]; hek293): Not Active
54 | O=C(Nc1ccccc1C(=O)Nc1cccc(C(F)(F)F)c1)c1ccccc1I | 7.47 µM | 80% | –
55 | O=C(Nc1ccccc1C(=O)Nc1cccc(C(F)(F)F)c1)c1cccc(C(F)(F)F)c1 | 2.97 µM | 95% | –
56 | COc1ccccc1C(=O)Nc1ccccc1C(=O)Nc1cccc(N2CCCCC2)c1 | 5.29 µM | 77% | –
57 | O=C(Nc1cccc(C(F)(F)F)c1)c1ccccc1NC(=O)C1CC1 | 8.38 µM | 79% | –
58 | COc1ccccc1CNc1ccccc1C(=O)Nc1cccc(C(F)(F)F)c1 | 59.3 µM | 57% | –
59 | C#Cc1cccc(NC(=O)c2ccccc2NC(=O)C2CCCCC2)c1 | 6.66 µM | 85% | –
